Results as given in the supplement of paper PMC11208160.

Test: recombinant UMI read abundance after kanamycin selection (control-corrected) (log10(CPM+1)); higher = more efficient recombination; extreme values may be limits of the assay; sequences stand for … in AGTGCAGAGAAAATCGGCCAGTTTTCTCTGCCTGCAGTCCGCATGCCGTGGGACCCCTTGGGTTCTAACCTGTTGCCTAGATTTATGCAGCGGACTGCCTTTCTCCCAAAGTGATAAACCGG…AGGTTGGTTTCACT; site = the 11-nt donor
Summary of the method: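 Values are reported as log10(CPM+1), obtained by converting sequencing counts to CPM, averaging replicates and scaling by control-derived factors. The counts came from recombinant UMIs amplified by PCR across the donor–target junction. These UMIs came from a pooled Escherichia coli screen of donor and donor-binding-loop pairs for the IS621 bridge recombinase, plated with IPTG (0.07 mM) plus kanamycin or left unselected, in two replicates each.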
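Further: IS621 bridge recombinase in Escherichia coli cells against a fixed T5 target plasmid.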

| Sequence | recombinant UMI read abundance (log10) |
| --- | --- |
| TAGCAGACATGGACCGGTTTTCCCGGTAATCCGTATTTGGT (site TAGCAGACTAC) | 0.868 |
| TAGCAGGCATGGACCGGTTTTCCCGGTAATCCGTATTTGCT (site TAGCAGGCTAG) | 1.19 |
| TAGCCTACATGGACCGGTTTTCCCGGTAATCCGTATTTGGT (site TAGCCTACTAC) | 0.00532 |
| TAGCCTACATGGACCGGTTTTCCCGGTAATCCGTATTTGGT (site TAGCCTCCTAC) | 0.0181 |
| TAGCCTACATGGACCGGTTTTCCCGGTAATCCGTATTTGGT (site TAGCCTGCTAC) | 0.0107 |
| TAGCCTACATGGACCGGTTTTCCCGGTAATCCGTATTTGGT (site TAGCCTTCTAC) | 0.0222 |
| TAGCCTTCATGGACCGGTTTTCCCGGTAATCCGTATTTGGC (site TAGCCTTCTAC) | 0.00487 |
| TAGCCTTCATGGACCGGTTTTCCCGGTAATCCGTATTTGGC (site TAGCCTTCTCC) | 0.0163 |
| TAGCCTTCATGGACCGGTTTTCCCGGTAATCCGTATTTGGC (site TAGCCTTCTGC) | 0 |
| TAGCCTTCATGGACCGGTTTTCCCGGTAATCCGTATTTGGC (site TAGCCTTCTTC) | 0.0129 |
| TAGCCTTCATGGACCGGTTTTCCCGGTAATCCGTATTTGTT (site TAGCCTTCTAA) | 1.08 |
| TAGCCTTCATGGACCGGTTTTCCCGGTAATCCGTATTTGTT (site TAGCCTTCTAC) | 0.0119 |
| TAGCCTTCATGGACCGGTTTTCCCGGTAATCCGTATTTGTT (site TAGCCTTCTAG) | 0.0127 |
| TAGCCTTCATGGACCGGTTTTCCCGGTAATCCGTATTTGTT (site TAGCCTTCTAT) | 0.00427 |
| TAGCGCGCATGGACCGGTTTTCCCGGTAATCCGTATTTGAC (site TAGCGCGCTGT) | 2.03 |
| TAGCGGTCATGGACCGGTTTTCCCGGTAATCCGTATTTGTT (site TAGCGGTCTAA) | 1.27 |
| TAGCTAGCATGGACCGGTTTTCCCGGTAATCCGTATTTGAA (site AAGCTAGCTTT) | 0.0472 |
| TAGCTAGCATGGACCGGTTTTCCCGGTAATCCGTATTTGAA (site CAGCTAGCTTT) | 0.178 |
| TAGCTAGCATGGACCGGTTTTCCCGGTAATCCGTATTTGAA (site GAGCTAGCTTT) | 0 |
| TAGCTAGCATGGACCGGTTTTCCCGGTAATCCGTATTTGAA (site TAACTAGCTTT) | 0.822 |
| TAGCTAGCATGGACCGGTTTTCCCGGTAATCCGTATTTGAA (site TACCTAGCTTT) | 0.015 |
| TAGCTAGCATGGACCGGTTTTCCCGGTAATCCGTATTTGAA (site TAGATAGCTTT) | 0.0135 |
| TAGCTAGCATGGACCGGTTTTCCCGGTAATCCGTATTTGAA (site TAGCAAGCTTT) | 0.00493 |
| TAGCTAGCATGGACCGGTTTTCCCGGTAATCCGTATTTGAA (site TAGCCAGCTTT) | 0.0109 |
| TAGCTAGCATGGACCGGTTTTCCCGGTAATCCGTATTTGAA (site TAGCGAGCTTT) | 0.0252 |

| Sequence | recombinant UMI read abundance (log10) |
| --- | --- |
| TAGCTAGCATGGACCGGTTTTCCCGGTAATCCGTATTTGAA (site TAGCTAACTTT) | 0.0471 |
| TAGCTAGCATGGACCGGTTTTCCCGGTAATCCGTATTTGAA (site TAGCTACCTTT) | 0.0202 |
| TAGCTAGCATGGACCGGTTTTCCCGGTAATCCGTATTTGAA (site TAGCTAGCTAT) | 0.502 |
| TAGCTAGCATGGACCGGTTTTCCCGGTAATCCGTATTTGAA (site TAGCTAGCTCT) | 0.00536 |
| TAGCTAGCATGGACCGGTTTTCCCGGTAATCCGTATTTGAA (site TAGCTAGCTGT) | 1.28 |
| TAGCTAGCATGGACCGGTTTTCCCGGTAATCCGTATTTGAA (site TAGCTAGCTTA) | 0.00377 |
| TAGCTAGCATGGACCGGTTTTCCCGGTAATCCGTATTTGAA (site TAGCTAGCTTC) | 0.504 |
| TAGCTAGCATGGACCGGTTTTCCCGGTAATCCGTATTTGAA (site TAGCTAGCTTG) | 0.0037 |
| TAGCTAGCATGGACCGGTTTTCCCGGTAATCCGTATTTGAA (site TAGCTAGCTTT) | 0.858 |
| TAGCTAGCATGGACCGGTTTTCCCGGTAATCCGTATTTGAA (site TAGCTATCTTT) | 0.588 |
| TAGCTAGCATGGACCGGTTTTCCCGGTAATCCGTATTTGAA (site TAGCTCGCTTT) | 0.0026 |
| TAGCTAGCATGGACCGGTTTTCCCGGTAATCCGTATTTGAA (site TAGCTGGCTTT) | 0.0168 |
| TAGCTAGCATGGACCGGTTTTCCCGGTAATCCGTATTTGAA (site TAGCTTGCTTT) | 0.00961 |
| TAGCTAGCATGGACCGGTTTTCCCGGTAATCCGTATTTGAA (site TAGGTAGCTTT) | 0.0179 |
| TAGCTAGCATGGACCGGTTTTCCCGGTAATCCGTATTTGAA (site TAGTTAGCTTT) | 0.0249 |
| TAGCTAGCATGGACCGGTTTTCCCGGTAATCCGTATTTGAA (site TATCTAGCTTT) | 0.0236 |
| TAGCTAGCATGGACCGGTTTTCCCGGTAATCCGTATTTGAA (site TCGCTAGCTTT) | 0.00871 |
| TAGCTAGCATGGACCGGTTTTCCCGGTAATCCGTATTTGAA (site TGGCTAGCTTT) | 0.0087 |
| TAGCTAGCATGGACCGGTTTTCCCGGTAATCCGTATTTGAA (site TTGCTAGCTTT) | 0.00459 |
| TAGCTGACATGGACCGGTTTTCCCGGTAATCCGTATTTGCG (site TAGCTGACTCG) | 1.5 |
| TAGGAATCATGGACCGGTTTTCCCGGTAATCCGTATTTGCA (site TAGGAATCTAG) | 1.62 |
| TAGGAATCATGGACCGGTTTTCCCGGTAATCCGTATTTGCA (site TAGGAATCTCG) | 1.64 |
| TAGGAATCATGGACCGGTTTTCCCGGTAATCCGTATTTGCA (site TAGGAATCTGG) | 0.896 |
| TAGGAATCATGGACCGGTTTTCCCGGTAATCCGTATTTGCA (site TAGGAATCTTG) | 2.82 |
| TAGGAATCATGGACCGGTTTTCCCGGTAATCCGTATTTGTG (site TAGGAATCTCA) | 3.2 |

| Sequence | recombinant UMI read abundance (log10) |
| --- | --- |
| TAGGAATCATGGACCGGTTTTCCCGGTAATCCGTATTTGTG (site TAGGAATCTCC) | 2.13 |
| TAGGAATCATGGACCGGTTTTCCCGGTAATCCGTATTTGTG (site TAGGAATCTCG) | 2.63 |
| TAGGAATCATGGACCGGTTTTCCCGGTAATCCGTATTTGTG (site TAGGAATCTCT) | 2.59 |
| TAGGAGTCATGGACCGGTTTTCCCGGTAATCCGTATTTGCG (site TAGGAATCTCG) | 3.12 |
| TAGGAGTCATGGACCGGTTTTCCCGGTAATCCGTATTTGCG (site TAGGACTCTCG) | 1.24 |
| TAGGAGTCATGGACCGGTTTTCCCGGTAATCCGTATTTGCG (site TAGGAGTCTCG) | 3.24 |
| TAGGAGTCATGGACCGGTTTTCCCGGTAATCCGTATTTGCG (site TAGGATTCTCG) | 0.951 |
| TAGGCCGCATGGACCGGTTTTCCCGGTAATCCGTATTTGTG (site CCATTGACTTT) | 0.00523 |
| TAGGCTTCATGGACCGGTTTTCCCGGTAATCCGTATTTGGT (site TAGACTTCTAC) | 0.0923 |
| TAGGCTTCATGGACCGGTTTTCCCGGTAATCCGTATTTGGT (site TAGCCTTCTAC) | 0.0146 |
| TAGGCTTCATGGACCGGTTTTCCCGGTAATCCGTATTTGGT (site TAGGCTTCTAC) | 1.54 |
| TAGGCTTCATGGACCGGTTTTCCCGGTAATCCGTATTTGGT (site TAGTCTTCTAC) | 0.0132 |
| TAGGGAACATGGACCGGTTTTCCCGGTAATCCGTATTTGGC (site TAGGGAACTGC) | 1.53 |
| TAGGTTGCATGGACCGGTTTTCCCGGTAATCCGTATTTGTA (site TAGGTTGCTTA) | 2.39 |
| TAGTAACCATGGACCGGTTTTCCCGGTAATCCGTATTTGAG (site TAGTAACCTCT) | 0.00753 |
| TAGTGCCCATGGACCGGTTTTCCCGGTAATCCGTATTTGGC (site TAGTGCCCTGC) | 0 |
| TAGTGTTCATGGACCGGTTTTCCCGGTAATCCGTATTTGCA (site TAGTGTTCTTG) | 2.49 |
| TAGTTGGCATGGACCGGTTTTCCCGGTAATCCGTATTTGGG (site TAGTTGGCTCC) | 0.0252 |
| TATAAGCCATGGACCGGTTTTCCCGGTAATCCGTATTTGCC (site TATAAGCCTGG) | 0 |
| TATAGCGCATGGACCGGTTTTCCCGGTAATCCGTATTTGGC (site TATAGCGCTGC) | 2.48 |
| TATAGGCCATGGACCGGTTTTCCCGGTAATCCGTATTTGAG (site TATAGGCCTCT) | 0.0191 |
| TATCATTCATGGACCGGTTTTCCCGGTAATCCGTATTTGGG (site TATCATTCTCC) | 0.00534 |
| TATCCGTCATGGACCGGTTTTCCCGGTAATCCGTATTTGAA (site TATCCGTCTTT) | 0.0803 |
| TATGAGTCATGGACCGGTTTTCCCGGTAATCCGTATTTGCT (site TATGAGTCTAG) | 2.74 |
| TATGCAACATGGACCGGTTTTCCCGGTAATCCGTATTTGTT (site TATGCAACTAA) | 0.0144 |
